Where two headings read alike, the source gives them in different places.

The test system of data set [1] is CD25-negative Ramos cells. In words: Bystander effect in co-culture of Karpas 299 and Ramos cells, flow cytometry. In kind it is cell-based, human. The settings on record: 96 hour exposure, co-culture with CD25-positive Karpas 299, compared to Ramos cultured alone. As to the method: FIG. 3. […] The histogram depicts the percentage of viable populations of cells as measured by flow cytometry.
Readout was Karpas 299 and Ramos cell numbers and the viability of these cells both of which were determined by flow cytometry.
Ramos cells are human B lymphocytes of Burkitt's lymphoma.
On the technique in general: Flow cytometry measures light scatter and fluorescence of single cells or particles in a stream.

In data set [2] the test system is CD25-positive SuDHL-1 cells. The experiment in a line: Cytotoxicity on CD25-positive SuDHL-1 cells, cleavable vs non-cleavable linker. In kind it is cell-based. As to conditions: direct treatment of CD25-positive SuDHL-1 cells.
Data set [3] concerns CD25-negative Ramos cells. As to conditions: second culture 96 hrs. As to the method: FIG. 5. […] Data is presented as the mean±SD.
In these experiments, an first 48 hr culture of either (A) CD25-negative cells Ramos cells, or (B) CD25-positive Karpas 299, with ADCT-301 was performed. When this first culture was complete, the culture was centrifuged and 50 μl of the supernatant media transferred to 50 μl of a freshly prepared culture of either (A) CD25-negative cells Ramos cells, or (B) CD25-positive Karpas 299. This second culture was performed for 96 hrs, then cytotoxicity assessed by the MTS assay.

The target in data set [4] is T1, human CD25 (Homo sapiens, UniProt P01589).
T1 construct: endogenous in cells
T1 sequence (P01589 22-272): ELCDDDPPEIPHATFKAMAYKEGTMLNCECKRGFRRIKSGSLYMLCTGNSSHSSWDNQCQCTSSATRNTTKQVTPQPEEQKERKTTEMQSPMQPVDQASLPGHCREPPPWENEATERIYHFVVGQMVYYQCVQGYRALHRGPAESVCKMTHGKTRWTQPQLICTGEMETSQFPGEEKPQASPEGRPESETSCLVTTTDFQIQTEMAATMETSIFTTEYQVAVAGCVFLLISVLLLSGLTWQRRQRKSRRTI
In words: Flow cytometry binding of ADCT-301-FITC on concanavalin-A activated CD25-positive human PBMCs. As to conditions: CD25-PE gate. As to the method: FIG. 1. Affinity of ADCT-301 for human CD25 as determined by flow cytometry on concanavalin-A activated CD25-positive human PBMCs. ADCT-301-FITC binding was assessed in a CD25-PE (phycoerythrin) gate across the dilution series by measuring median fluorescent intensity (MFI) in channel FL1H. Isotype, non-targeting-ADC-FITC was used as the non-binding ADC control.
Relative binding affinity of ADCT-301 was measured by flow cytometry on Concanavalin A-activated CD25-positive lymphocytes. Surface plasmon resonance (SPR, Biacore) was used to measure binding affinity and binding kinetics of HuMax®-TAC and ADCT-301 on recombinant sCD25 ectodomain attached to a gold surface.

Data set [5] has as its system Karpas 299. The experiment in a line: MTS cell proliferation assay, in vitro cytotoxicity. In kind it is cell-based. The settings on record: Karpas 299, anaplastic large cell lymphoma, CD25 expressing, 96 hours. As to the method:
(§1) FIG. 2. In vitro cytotoxicity of ADCT-301 on six lymphoma cell lines as measured by the MTS cell proliferation assay. Cells were incubated with increasing concentrations of ADCT-301 for 96 hours. Data is presented as the mean±SD
(§2) Cell surface protein copy number of CD25 and CD30 was determined on various lymphoma cell lines by flow cytometric Qifikit® assay. Cytotoxicity of ADCT-301 on these cell lines was determined by cell proliferation assay (MTS) to determine whether there is a correlation between CD25 copy number and in vitro cytotoxic potency.
Background: Tetrazolium dyes change colour on reduction, which living cells bring about.

Data set [6] has as its system L540. Described as above. It is filed as cell-based. The settings on record: L540, Hodgkin's lymphoma, CD25 expressing, 96 hours. As to the method:
as §1, §2

Data set [7] relates to Daudi. The description is as above. As to conditions: Burkitt's lymphoma, CD25 negative, 96 hours. In kind it is cell-based. As to the method:
as §1, §2

Data set [8] relates to SU-DHL-1. Described as above. As to conditions: SU-DHL-1, anaplastic large cell lymphoma, CD25 expressing, 96 hours. It is filed as cell-based. As to the method:
as §1, §2

For data set [9], the system named is HDLM-2. The description is as above. It is filed as cell-based. As to conditions: HDLM-2, Hodgkin's lymphoma, CD25 expressing, 96 hours. As to the method: as §1, §2
The test system of data set [10] is HuT 78. The data set is described as above. In kind it is cell-based. The settings on record: HuT 78, cutaneous T cell lymphoma, CD25 negative, 96 hours. As to the method: as §1, §2
Data set [11] has as its system CD25-negative Burkitt lymphoma Ramos cells. The experiment in a line: Conditioned media transfer from SuDHL-1 culture to Ramos cells, MTS assay. It is filed as cell-based, human. As to conditions: media conditioned by 48 hr culture of CD25-positive SuDHL-1 cells; second culture 96 hrs. As to the method: FIG. 6. Comparison of CD25−ve bystander cytotoxicity observed with cleavable vs. non-cleavable linkers by in vitro conditioned media transfer. […] The error bars indicate % cell viability±SD of 3 independent repeats
The effect of linker cleavablility was investigated in conditioned media transfer experiments. In these experiments, a first 48 hr culture CD25-positive SuDHL-1 cells was performed with either (1) of ADCT-301 (cleavable linker), or (2)NC-1 (composed of the recombinant human IgG1, HuMax®-TAC against human CD25 attached to a pyrrolobenzodiazepine PBD warhead with non-cleavable linker according to the alternative aspect of the disclosure).

By GI50 is commonly meant the concentration that inhibits growth by half. Low values mean more potent growth inhibition, high ones less potent growth inhibition. Regarding “ADCT-301: recombinant human IgG1, HuMax-TAC against human CD25 attached to a pyrrolobenzodiazepine PBD warhead, cleavable linker; drug-antibody ratio 2.3±0.3; HuMax-TAC-E of WO2014/57119”, the “Bystander killing of Ramos cells in co-culture” value in data set [1] is reported as “specific bystander killing of Ramos cells”. Further, in [2], the “Sensitivity of SuDHL-1 cells to treatment” value was “equally sensitive”. Moreover, the “Cytotoxicity to Ramos cells of conditioned media” value in data set [3] (media conditioned by 48 hr culture of CD25+ve Karpas299 cells) is listed as “potent cytotoxicity”; in [3] (media conditioned by 48 hr culture of CD25-ve Ramos cells) it was “does not lead to any observable increase in cytoxicity”; in data set [11] it was “shows cytotoxicity of CD25-negative Burkitt lymphoma Ramos cells”. The “EC50 (affinity for human CD25, median fluorescent intensity)” value in data set [4] is listed as “≈ 0.03 μg/ml”. The 50% growth inhibitory concentration (GI50) in data set [5] was 0.0365 nM; in data set [6], 0.0216 nM; in [7], above 10 nM; in data set [8] it was 0.0165 nM; in data set [9] it was 0.0511 nM; in [10], above 10 nM. Further, the “Mean GI50” value in data set [5] was 5.47 ng/mL; in [6] it was 3.25 ng/mL; in data set [7] it was >>150 ng/ml; in [8], 2.48 ng/mL; in data set [9] it was 7.67 ng/mL; in data set [10], >>150 ng/ml.
